Assays:
[1] = test system: lymphoblast cell lines obtained from HD patients; conditions: FIG. 2D
Method: DNA was purified from mouse tissues or cultured human fibroblasts (Kovtun et al., Hum. Mol. Genet., 13:3057-3068 (2004)) and used for PCR amplification of various microsatellites. CAG repeats at the hHD locus were amplified as described previously (Kovtun and McMurray, Nat. Genet., 27:407-411 (2001); Kovtun et al., Hum. Mol. Genet., 13:3057-3068 (2004)). […] One primer in each PCR amplification was labeled with FAM-6, and fluorescent products were analyzed using an ABI prism 3700 DNA analyzer instrument and the GeneMapper software v3 (Applied Biosystems).
It was then determined whether peroxide treatment could directly lead to CAG expansion at the hHD locus in human HD fibroblasts in response to oxidative damage.

human HD fibroblasts [2] = test system: human HD fibroblasts
Method: Human HD fibroblasts (Coriell Cell Repositories) were maintained in MEM medium with 20% FBS. Cells were grown until they reached 70% confluence and then treated with the indicated concentrations of H2O2 for 30 min. The cells were washed, the medium was replaced, and the cells were allowed to recover for three days before repeating the treatment one or two more times. After the third treatment, the cells were collected and DNA was isolated. CAG repeat sizing was performed as described below.

human HD fibroblasts [3] = assay: Comet assay of H2O2-treated cells; conditions: cultured cells; FIG. 2F

OO [H2O2, hydrogen peroxide]
expansion of CAG repeats at the hHD locus [1]: expansions were observed | cell viability (human HD fibroblasts [2]): did not affect cell viability | expansion of CAG repeats at the hHD locus (human HD fibroblasts [2]; low (sub-lethal) doses, 30 min treatment repeated up to three times, FIG. 2C): uniformly led to expansion of CAG at intermediate or disease-length alleles | expansion of GAA repeats (chromosome 5 locus) (human HD fibroblasts [2]; same peroxide-treated cells, FIG. 2E): expansion was not detected | single strand breaks (comet assay) (human HD fibroblasts [3]): dose-dependent increase in single strand breaks
